From PubChem BioAssay (NCI)
“And” between values parts separate entries of the source, which are not always exact repeats. Equal entries are not always repeated.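 Each compound was tested at five concentrations against cells in 96-well plates for 48 hours. GI50: concentration for 50% inhibition of growth. At the TGI there is no net growth.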

Experiments:
Experiment in all cases: NCI-60 cell line screen, 48 h
[1] = system: UO-31 renal
[2] = system: HCT-15 colon
[3] = system: OVCAR-3 ovarian
[4] = system: A549 NSCLC
[5] = system: OVCAR-4 ovarian
[6] = system: NCI-H522 lung
[7] = system: DU-145 prostate
[8] = system: K-562 leukemia
[9] = system: M14 melanoma
[10] = system: MCF7 breast

Row | Structure (SMILES) | GI50 [1] | TGI [1] | GI50 [2] | TGI [2] | GI50 [3] | TGI [3] | GI50 [4] | TGI [4] | GI50 [5] | TGI [5] | GI50 [6] | TGI [6] | GI50 [7] | TGI [7] | GI50 [8] | TGI [8] | GI50 [9] | TGI [9] | GI50 [10] | TGI [10]
1 | Cc1ccc(/C=C(/C#N)n2nnc3cccc(F)c32)cc1 | 0.515 µM | 11.7 µM | 0.24 µM | 8.69 µM | 0.227 µM | 0.536 µM | 0.696 µM | 44.5 µM | 1.01 µM | 33.1 µM | 0.194 µM | 14.9 µM | 0.332 µM | 7.13 µM | 0.168 µM | > 100 µM | 0.287 µM | 22.1 µM | 0.466 µM | 16.6 µM
2 | CC(C)(Oc1cccc(N2CCC[C@@H](C(=O)N(Cc3ccc(-c4cn[nH]c4)cc3)C3CC3)C2)c1)C(=O)N1CCNCC1 | 12.1 µM | 26.8 µM | 14.6 µM | 28.9 µM | 12.4 µM | 26 µM | 14.1 µM | 32.2 µM | 11.1 µM | 25.2 µM | 12.3 µM | 26 µM | 14.5 µM | 28 µM | 3.5 µM | 18.4 µM | 14.9 µM | 30.1 µM | 11.6 µM | 25.4 µM
3 | O=C(NNC1=NS(=O)(=O)c2ccccc2N1c1ccccc1)c1cnccn1 | 67.4 µM | > 100 µM | 52.2 µM | > 100 µM | > 100 µM | > 100 µM | > 100 µM | > 100 µM | > 100 µM | > 100 µM | > 100 µM | > 100 µM | > 100 µM | > 100 µM | > 100 µM | > 100 µM | > 100 µM | > 100 µM | > 100 µM | > 100 µM
4 | N#Cc1ncc(-c2ccc(C(F)(F)F)cc2)c(NC2CCCCCC2)n1 | 12 µM | > 100 µM | 8.53 µM | > 100 µM | 14.9 µM | > 100 µM | 47.4 µM | > 100 µM | 20.1 µM | > 100 µM | 6.02 µM | > 100 µM | 44.8 µM | > 100 µM | 9.03 µM | > 100 µM | 38.5 µM | > 100 µM | 5.68 µM | > 100 µM
5 | NC(=O)NC(=O)Nc1ccc(Br)cc1 | – | > 100 µM | – | > 65.4 µM | – | > 20.7 µM | – | > 100 µM | – | > 38.5 µM | – | > 40 µM | – | > 100 µM | – | > 100 µM | – | > 45.1 µM | – | > 100 µM
6 | COc1ccc(/C=C/C(=O)OC2CC34CCNC35CC(OC5(OC)C2OC)c2ccc(OC)c(O)c24)cc1O (stereo unspecified) | – | > 100 µM | – | > 100 µM | 35.5 µM and > 100 µM | > 100 µM | – | > 100 µM | – | > 100 µM | 49.6 µM and > 100 µM | > 100 µM | – | > 100 µM | 33.7 µM and > 100 µM | > 100 µM | – | > 100 µM | – | > 100 µM
7 | Cc1cc2c(C(C)C)c(O)c(O)c(/C=N/O)c2c(O)c1-c1c(C)cc2c(C(C)C)c(O)c(O)c(/C=N/O)c2c1O | 2.24 µM | 12.6 µM | 2.35 µM | 13.4 µM | 1.69 µM | 10.1 µM | 2.69 µM | 12.1 µM | 1.33 µM | 9.69 µM | 1.74 µM | 5.47 µM | 2.77 µM | 13.7 µM | 2.07 µM | 5.96 µM | 2.46 µM | 10.1 µM | 2.52 µM | 12.2 µM
8 | CC(=O)NC(CCc1ccc(Cl)c(Cl)c1)c1cccc(O)c(=O)c1 (stereo unspecified) | 0.109 µM | 2.2 µM | 0.131 µM | 19.6 µM | 0.358 µM | 14.7 µM | 0.527 µM | 11.5 µM | 0.302 µM | 40.4 µM | 0.488 µM | 11.9 µM | 1.18 µM | > 49.2 µM | 0.653 µM | 29.1 µM | 0.434 µM | 3.09 µM | 0.412 µM | 37.4 µM
9 | COC(=O)NC1=Nc2ccccc2C(=O)NN1 | – | > 100 µM | – | > 100 µM | – | > 100 µM | – | > 100 µM | – | > 100 µM | – | > 100 µM | – | > 100 µM | – | > 100 µM | – | > 100 µM | – | > 100 µM
10 | c1ccc(C2=Nc3ccccc3N3CNN=C23)cc1 | > 100 µM | > 100 µM | 90.6 µM | > 100 µM | 84.4 µM | > 100 µM | > 100 µM | > 100 µM | > 100 µM | > 100 µM | > 100 µM | > 100 µM | 81.9 µM | > 100 µM | 90.1 µM | > 100 µM | > 100 µM | > 100 µM | > 100 µM | > 100 µM
11 | C/C(=N\O)C1CC(CC(=O)O)C1(C)C (stereo unspecified) | – | > 100 µM | – | > 100 µM | – | > 100 µM | – | > 100 µM | – | > 100 µM | – | > 100 µM | – | > 100 µM | – | > 100 µM | – | > 100 µM | – | > 100 µM
12 | Cc1[nH]c(N)nc(=S)c1CCCNc1ccccc1 | – | > 100 µM | – | > 100 µM | – | > 100 µM | – | > 100 µM | – | > 100 µM | – | > 100 µM | – | > 100 µM | – | > 100 µM | – | > 100 µM | – | > 100 µM
13 | CCc1nc(N)nc(N)c1-c1ccc(N2CCNCC2)c([N+](=O)[O-])c1 | – | > 100 µM | – | > 100 µM | – | > 100 µM | – | > 100 µM | – | > 100 µM | – | > 100 µM | – | > 100 µM | – | > 90.2 µM | – | 31.9 µM | – | > 79.1 µM
14 | CCN1C[C@@H](C)n2c(c(O)c3c(=O)n(Cc4ccc(F)c(Cl)c4)nc(C(=O)NC)c32)C1=O | 2.43 µM | > 100 µM | 2.57 µM | 8.28 µM | – | – | 3.14 µM | > 100 µM | 3.18 µM | 44.6 µM | 2.95 µM | 9.47 µM | 3.57 µM | 13.8 µM | 3.39 µM | > 100 µM | 3.64 µM | 39.5 µM | 3.26 µM | 65.7 µM
15 | N#Cc1c(-c2ccccc2)nc(SCC(O)CN2CCOCC2)nc1N1CCOCC1 (stereo unspecified) | 1.54 µM | > 100 µM | 9.16 µM | > 100 µM | 15.4 µM | > 100 µM | 6.43 µM | > 100 µM | 16.3 µM | > 100 µM | 18.3 µM | > 100 µM | 24.5 µM | > 100 µM | 20 µM | > 100 µM | 50 µM | > 100 µM | 0.098 µM | 8.51 µM
